{
  "source": "patent US7264948B2",
  "about": "“Polypeptides for increasing mutant CFTR channel activity” (University of Pittsburgh, priority 2002, dated 2007)",
  "key": {"[1]": {"tested_on": "human airway cells", "experiment": "Organelle distribution of PTD-5-avidin-β-gal, gradient ultracentrifugation and β-gal activity", "assay_type": "cell-based", "conditions": "37° C., purified organelles, FIG. 5", "protocol": "To test the distribution of PTD5 facilitating uptake into human airway cells, the ability of PTD5 to deliver β-gal protein to a variety of cell organelles was examined by separation of organelles using gradient ultra-centrifugation. PTD-5-avidin-β-gal and a control peptide, (Con.P)-avidin-β-gal, were added to the media bathing the airway cell cultures and incubated at 37° C. Three hours post-addition of the complexes, the cells were washed extensively and collected for organelle isolation by gradient ultracentrifugation. The purified cell organelles were tested for β-gal activity using a Galacto-light kit (Tropix, Inc.)."}, "[2]": {"tested_on": "mouse lungs", "experiment": "Intra-tracheal delivery of PTD5 streptavidin-Cy3 complexes into mouse lungs, two-photon microscopy", "assay_type": "in vivo", "conditions": "50 μl of 200 μM, three hours post-injection, FIG. 3", "protocol": "To determine if the PTDs can facilitate protein uptake by mouse lungs, the PTD5 streptavidin-Cy3 complexes were delivered into mouse lungs intra-tracheally. The treated mice were sacrificed three hours post-delivery and tissue from the lungs was scanned by two-photon microscopy. 50 μl of 200 μM solution of the PTD-5-β-Cy3 was injected intra-tracheally into mouse lungs. Three hours post-injection, the mice were sacrificed, and the lungs were analyzed by two photon confocal microscopy for internalization. A control peptide (Con.P)-Cy3 was used as a control."}, "[3]": {"biological_target": "T1, interaction of Hdj2 and ΔF508 CFTR (Homo sapiens, UniProt P31689)", "T1 construct": "endogenous in cells; host or cells: KK bronchial epithelial cell line (lysate)", "experiment": "Co-immunoprecipitation of Hdj2 with CFTR in KK cell lysate treated with fusion protein", "assay_type": "binding", "protocol": "To test whether PTD-5 ΔF508NBD1-RD could inhibit interaction of Hdj2 and ΔF508 CFTR, KK cells, a bronchial epithelial cell line carrying the ΔF508 mutation, were lysed with a lysis buffer, the lysate was treated with PTD5-NBD1-ΔF-RD and equal amount lysates were used to perform immunoprecipitation (IP) using CFTR antibodies, M3A7 (1 μg) and L12B4 (1 μg) and protein […] beads. The precipitants were washed five times with lysis buffer. Hjd2 that co-precipitated with CFTR was fractionated by SDS-PAGE, transferred to PVDF membrane and detected by immunoblotting (IB)."}, "[4]": {"tested_on": "ΔF508 CFTR", "experiment": "Whole cell patch clamp of forskolin-stimulated currents", "conditions": "primary human airway (HBE) cells, four hours treatment, 5-10 μM forskolin, 37° C.", "method": "To increase the specificity of the method, a whole cell patch clamp method can be utilized to verify the SPQ data using PTD-5 ΔF508 NBD1/RD. Briefly, cells at 50% confluence are treated with PTD fusion peptide or adenovirus carrying ΔF508 NBD1/RD for four hours and subjected to whole cell patch clamp by standard methods. Currents are recorded at −60 mV and current-voltage relations are obtained before and after the cells are stimulated with 5-10 μM forskolin; all procedures are performed at 37° C. The bath solution contained (in mM) 150 NaCl, 2 MgCl2, 1 EGTA, 5 HEPES and 0.5 CaCl2 (pH=7.3). The pipette solution contains (in mM) 150 NaCl, 2 MgCl2, 5 HEPES and 2 CaCl2 (pH=7.3). Data is amplified using an Axopatch 200A patch-clamp amplifier and recorded to disk by a Digidata A/D interface for later analysis with pCLAMP8. The data is low-pass filtered and digitized at 1 kHz."}, "[5]": {"tested_on": "primary human airway epithelial cells (HBE144), polarized canine kidney cells (MDCK) and other cell types", "experiment": "PTD-5-facilitated delivery of avidin-β-gal complex, X-gal staining", "assay_type": "cell-based", "conditions": "150 nM PTD-5-avidin-β-gal complex, three hours, FIG. 1", "protocol": "(§1) To determine whether the PTD5 polypeptide (RRQRRTSKLMKR) was able to facilitate uptake into different cell types including differentiated airway epithelial cells and Calu3 cells, the ability of PTD5 to deliver avidin-β-Gal and streptavidin Cy3 to human airway cells and Calu3 cells was examined.\nPTD-5 is a positively charged transduction peptide, which was biotinylated so that it can be coupled to avidin marker complexes. 150 nM of the PTD-5-avidin-β-gal complex was added to the cell culture media of various cell lines (FIG. 1). Three hours post addition of the complex, the indicated cells were fixed and stained with X-gal."}, "[6]": {"tested_on": "Calu3 cells and human bronchial epithelial cells (KK)", "experiment": "PTD-5-facilitated delivery of streptavidin-Cy3, confocal microscopy", "assay_type": "cell-based", "conditions": "three hours, 37° C., FIG. 2", "protocol": "as §1\nPTD-5 was also coupled to streptavidin-Cy 3, which was added to Calu3 cell and human bronchial epthelial cells (KK) cultures at 37° C. (FIG. 2). A peptide (Con.P)-strepavdin-Cy3 was used as a control. Three hours post addition of the PTD-5-streptavidin-Cy 3, the intracellular localization of the red (Cy 3) fluorescent signals were visualized by confocal microscopy. The nuclei were counterstained using cytox green."}},
  "note": "Ends that are not written are not given here.",
  "data": [
    {"substance": "ARPLEHGSDKAT (control, Con P) [reference compound]", "values": [
      {"measurement": "delivery of avidin-β-gal complex to cell organelles (β-gal activity)", "setting": "[1]", "result": "did not localize to any of the organelles"},
      {"measurement": "Cy3 signal in lungs", "setting": "[2]", "result": "weak signals"}
    ]},
    {"substance": "PTD5-ΔF508 NBD1/RD fusion protein: inline fusion of PTD-5 with the ΔF508 CFTR NBD1-RD region, histidine tag, expressed in E. coli, nickel column purified", "values": [
      {"measurement": "interaction of Hdj2 with ΔF508 CFTR (co-immunoprecipitation)", "setting": "[3]; listed as PTD5 ΔF508NBD1-RD fusion protein", "result": "capable of inhibiting the interaction of Hdj2 with the ΔF508 CFTR protein"},
      {"measurement": "interaction of Hdj2 with ΔF508 CFTR (co-immunoprecipitation)", "setting": "[3]; listed as PTD-5-ΔF508 NBD1-RD", "result": "disrupts ΔF508 CFTR interaction with chaperone Hdj2"},
      {"measurement": "forskolin-stimulated whole cell currents", "setting": "[4]", "result": "forskolin-stimulated currents typical of those associated with CFTR"}
    ]},
    {"substance": "RRQRRTSKLMKR (also: biotinylated (position not given here)) [PTD-5, biotinylated for coupling to avidin marker complexes]", "values": [
      {"measurement": "delivery of avidin-β-gal complex to cell organelles (β-gal activity)", "setting": "[1]", "result": "able to deliver the avidin-β-gal complex to ER, Golgi, mitochondria, and nuclei"},
      {"measurement": "Cy3 signal in lungs", "setting": "[2]", "result": "significant Cy3 signal"},
      {"measurement": "delivery of avidin-β-gal complex into cells (X-gal staining)", "setting": "[5]", "result": "able to deliver the avidin-β-gal complex"},
      {"measurement": "delivery of streptavidin-Cy3 complex into cells (confocal microscopy)", "setting": "[6]", "result": "delivered the streptavidin-Cy3 complex"}
    ]}
  ]
}
